# Assay results reported in patent US12439921B2 (priority 2019, dated 2025).
# Assays:
# Format in all cases: in vivo
# Cucumber seeds = test: Cucumber phytotoxicity test (seed dressing); details: 0.5 mg/seed, 10 days after sowing; for Germination Count: sowing count 5
# Method: Cucumber seeds were sown one by one in a 3 cm styrene cup filled with sterilized soil, where the seeds had been subjected to dressing treatment with a dressing dust presented in Formulation Example 1 or Formulation Example 2 so that the amount treated of the compound (1) or compound (2) would be a predetermined amount.
# The germination rate was calculated 10 days after sowing. In addition, the germination rate was also calculated in the same manner for the case of sowing seeds treated with fluensulfone instead of Formulation Example 1 (compound (1)) or Formulation Example 2 (compound (2)) and for the case of sowing seeds treated with none of the compounds.
# Ascaridia galli = Ascaridia galli control test (in vitro); details: 50 ppm; 24 hours; 42° C.
# Method: To 10 mL of a chemical solution prepared by using Ringer's solution so that the compound (1) or the compound (2) would have a predetermined concentration, 6 Ascaridia galli were introduced, and the solution was cultured in a water bath at 42° C. The number of surviving worms was counted 24 hours after the start of culture, and the mortal worm rate was calculated.
# Heterodera glycines = Heterodera glycines control test (in vitro); details: 10 ppm; second stage larvae; 2 days after addition; 25° C.
# Method: Each well of a 24-well plate was charged with 1 mL of a chemical solution prepared to have a final concentration of 0.1% acetone and a predetermined concentration of the compound (1), in which 20 to 30 larvae of Heterodera glycines at the second stage were released and left to stand in the dark at 25° C. The number of surviving and moribund worms 2 days after the addition of the chemical solution was measured. In addition, the number of surviving and moribund worms in the untreated group not treating the compound (1) was measured in the same manner, and the corrected mortal worm rate was calculated by the following formula.
# Corrected mortal worm rate (%)={(mortal worm rate of treated group−mortal worm rate of untreated group)/(100−mortal worm rate of untreated group)}×100
# [1] = system: Bursaphelenchus xylophilus; test: Bursaphelenchus xylophilus control test (cotton ball test method); design: key: Score 1: no influence on feeding (no effect); Score 2: feeding degree of 41% or more; Score 3: feeding degree of 21 to 40%; Score 4: feeding degree of 20% or less; Score 5: no feeding (great effect); details: 26° C., 5 days
# Method: As a Bursaphelenchus xylophilus control test, the cotton ball test method was used to confirm the inhibitory effect on the proliferation of Bursaphelenchus xylophilus. […] The pressure was reduced in a desiccator for about 30 minutes, the solvent was removed by evaporation, and a test cotton ball was obtained. In addition, the gray mold as the test bacterium was cultured at 22° C. for 4 days in a Petri dish containing potato dextrose agar medium. Then, the test cotton ball was placed in the center of the Petri dish, and 1500 Bursaphelenchus xylophilus (100 μL of solution) were injected therein. This Petri dish was cultured at 26° C. for 5 days, and the feeding degree of the gray mold by Bursaphelenchus xylophilus was evaluated based on the following evaluation criteria. Further, evaluation was performed in the same manner when morantel was used instead of the compound (1) or (2).
# Score 1: no influence on feeding (no effect)
# Score 2: feeding degree of 41% or more
# Score 3: feeding degree of 21 to 40%
# Score 4: feeding degree of 20% or less
# Score 5: no feeding (great effect)
# wheat = test: Wheat growth effect test; details: 3 days; for Plant Height Relative to Untreated: untreated = 100; for Plant Height: root immersion
# Method: Each well of a 24-well plate was charged with 200 μL of a chemical solution prepared to have a final concentration of 10% acetone and a predetermined concentration of the compound (1), and the root of the sprouting wheat was immersed therein. Then, 3 days after the immersion, the plant height of the stems and leaves was measured to evaluate the effect of the compound (1) on the growth of wheat. In addition, the plant height of the stems and leaves was also measured for the case of sowing seeds not treated with the compound (1) (untreated). Note that Table 8 also presents the relative values of plant height (relative to untreated) when the untreated case was set to 100.
# Hymenolepis diminuta = Hymenolepis diminuta control test in infected rats; details: oral 20 mg/kg, 7 days after administration
# Source text: Rats were previously infected with Hymenolepis diminuta to prepare infected rats.
# Meloidogyne incognita [2] = test: Meloidogyne incognita control test (soil irrigation); details: cucumber; soil irrigation 100 ppm, 3 mL; 21 days after inoculation
# Method: Cucumber seeds were sown one by one in a 3 cm styrene cup filled with sterilized soil. After germination, 3 mL each of a chemical solution prepared with 10% acetone water was irrigated into the soil so that the compound (1) would be 100 ppm when irrigated into the soil. After 1 hour, 200 counts/mL of the second stage larval solution of Meloidogyne incognita were inoculated at 1 mL/pot. Then, 21 days after the inoculation, the degree of gall formation on the cucumber root was classified by a visual inspection based on the following 6-level gall formation degree criteria, and the gall index was calculated. In addition, the gall index, in the case of the treated group not treating the compound (1) (untreated), was also calculated in the same manner.
# (§1) Gall index=(0×a+1×b+2×c+3×d+4×e+5×f)/((a+b+c+d+e+f)×5)×100 a: number of strains that meet the gall formation degree criteria of 0, b: number of strains that meet the gall formation degree criteria of 1, c: number of strains that meet the gall formation degree criteria of 2, d: number of strains that meet the gall formation degree criteria of 3, e: number of strains that meet the gall formation degree criteria of 4, and f: number of strains that meet the gall formation degree criteria of 5. […]
# Meloidogyne incognita [3] = test: Meloidogyne incognita control test 1 (seed dressing); details: cucumber; seed dressing 0.5 mg/seed; 21 days after inoculation
# Method: Cucumber seeds were sown one by one in a 3 cm styrene cup filled with sterilized soil, where the seeds had been subjected to dressing treatment with a dressing dust presented in Formulation Example 1 so that the amount treated of the compound (1) would be a predetermined amount. Then, 10 days after sowing, 200 counts/mL of the second stage larval solution of Meloidogyne incognita was inoculated at 1 mL for each seed. Then, 21 days after the inoculation, the degree of gall formation on the cucumber root was classified by a visual inspection based on the following 6-level gall formation degree criteria, and the gall index was calculated. In addition, the gall index was also calculated in the same manner for the case of sowing seeds treated with paraherquamide A instead of Formulation Example 1 (compound (1)) and for the case of sowing seeds treated with none of the compounds.
# as §1, with “index=(0×a+1×b+2×c+3×d+4×e+5×f)/((a+b+c+d+e+f) ×5)×100 •” for “index=(0×a+1×b+2×c+3×d+4×e+5×f)/((a+b+c+d+e+f)×5)×100”
SMILES,Germination Rate (Cucumber seeds) [%],Germination Count (Cucumber seeds),mortal worm rate (Ascaridia galli),"Score (feeding degree of the gray mold) ([1]; 20 μg/cotton ball, 200 ppm)",control effect (Hymenolepis diminuta),Gall Index (Meloidogyne incognita [3]),also measured
"C[C@H]1CC(=O)N2C[C@]34C[C@]5(CC(=O)N(C)C5=O)C(C)(C)[C@@H]3CC12C(=O)N4C [Compound (1), 16-keto-aspergillimide]",100,5,0,1,no effect,8,corrected mortal worm rate (Heterodera glycines): 100%; Plant Height Relative to Untreated (wheat; 50 ppm): 106.1; Plant Height (wheat; 50 ppm): 9.87 cm; Plant Height Relative to Untreated (wheat; 100 ppm): 98.9; Plant Height (wheat; 100 ppm): 9.20 cm; Plant Height Relative to Untreated (wheat; 200 ppm): 98.9; Plant Height (wheat; 200 ppm): 9.20 cm; Gall Index (Meloidogyne incognita [2]): 0
"C[C@H]1CCN2C[C@@]34C[C@]5(CC(=O)N(C)C5=O)C(C)(C)[C@@H]3C[C@]12C(=O)N4C [Compound (2), asperparaline A]",100,5,0,1,no effect,,
"O=S(=O)(CCC(F)=C(F)F)c1ncc(Cl)s1 [Fluensulfone, fluensulfone, reference compound]",0,0,,,,,
"Cc1ccsc1/C=C/C1=NCCCN1C [Morantel, morantel, reference compound]",,,,,,,"Score (feeding degree of the gray mold) ([1]; 5 μg/cotton ball, 50 ppm): 5"
"CN1C(=O)[C@]23C[C@@H]4C(C)(C)[C@@]5(C[C@@]41CN2CC[C@@]3(C)O)C(=O)Nc1c5ccc2c1OC=CC(C)(C)O2 [Paraherquamide A, paraherquamide A, reference compound]",,,,,,44,
